Tested on: medulloblastoma D384 cells
Assay: exoDNA yield in microvesicles after inhibition of DNA replication with L-mimosine
Type: cell-based, human
Settings: D384 cells treated with L-mimosine (200, 400 and 600 μM), microvesicles isolated from medium after 48 hrs, ssDNA yield compared to mock treated cells
Protocol: D384 cells were seeded in 6-well plates and treated with increasing dosages of L-mimosine (200, 400 and 600 μM) or mock treated. Microvesicles were isolated from the medium after 48 hrs and ssDNA was extracted using the Qiagen PCR purification kit. Single-stranded DNA yields were quantified using the Bioanalyzer and the yields were compared to mock treated cells (normalized to 1.0).
We used L-mimosine to inhibit DNA replication and examined whether the inhibition affected the yield of exoDNA. If the exoDNA yield is decreased after inhibition, it is very likely that exoDNA may contain fragments of genomic DNA.
Specifically, D384 cells were plated on 6-well plates (2×10^6 cells/well) and treated with increasing amounts (200, 400 and 600 μM) of L-mimosine (Sigma-Aldrich, St. Louis, Mo.) which is an inhibitor of DNA replication. The drug was added at one time point and 48 hrs after, the media was collected and processed for the isolation of microvesicles. Cell viability was assessed by cell count using the Countess Automated Cell Counter (Invitogen). SsDNA yields are normalized to one.

N[C@@H](Cn1ccc(=O)c(O)c1)C(=O)O [L-mimosine]
decrease of exoDNA yield in microvesicles: about 50%

Source: patent US10793914B2, “Cancer-related biological materials in microvesicles” (THE GENERAL HOSPITAL CORPORATION, priority 2010, dated 2020)
